Source: US20240043439A1, “COMPOUNDS AS C5AR INHIBITORS” (Kira Pharmaceuticals (Suzhou) Ltd., priority 2020, published 2024)

How the values were obtained:
[1] = molecular target: human C5a receptor (C5aR) (Homo sapiens (Human), UniProt P21730); experiment: Inhibition of C5a-C5aR binding (biotinylated human C5a, U937/C5aR cells, FACS)
In short: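 U937 cells stably expressing human C5aR, 3×10^6 cells/ml in PBS+0.1% BSA, were co-incubated with compound and biotinylated human C5a (30 nM, working solution) on ice for 120 min. Bound ligand was stained with FITC-streptavidin for 30 min on ice and read by flow cytometry.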

[2] = molecular target: T1, C5aR (Homo sapiens (Human), UniProt P21730); experiment: Inhibition of C5a-C5aR binding determined by cell migration assay (U937/C5aR cells); type: cell-based; conditions: U937/C5aR cell migration towards human C5a, 180 min
Protocol: Migration assay was performed by using polycarbonate membrane with 3.0 µm pore (Corning). U937/C5aR cells were collected and washed twice by PBS; cells were suspended in Hank's balanced salt solution (HBSS)+1% FBS buffer at the density of 6×10^6 cells/ml. Cells were premixed with compound and added to insert well, ligand human C5a and compound were added to bottom well in order, gently mix, incubate for 30 min at 37° C., […]. Put insert plate into bottom well, migrate for 180 min at 37° C., […]. Gently remove the insert well, add 50 μl CellTiter-Glo (Promega), gently shaking for 5 min at room temperature, transfer 150 μl mixture to black plate and read luminescence intensity by
microplate reader (BioTek).

[3] = molecular target: T1, C5aR; experiment: Calcium mobilization (U937/C5aR or HEK293/C5aR cells, FLIPR); type: cell-based; conditions: agonist human C5a at EC80, FLIPR
In short: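 U937 or HEK293 cells expressing human C5aR, plated overnight, then preincubated 60 min with compound. After Fluo-4 Direct dye loading (50 min at 37 °C, 10 min at room temperature), intracellular calcium rise on FLIPR was triggered by human C5a agonist at EC80.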

human C5a receptor (C5aR), sequence (P21730 whole entry): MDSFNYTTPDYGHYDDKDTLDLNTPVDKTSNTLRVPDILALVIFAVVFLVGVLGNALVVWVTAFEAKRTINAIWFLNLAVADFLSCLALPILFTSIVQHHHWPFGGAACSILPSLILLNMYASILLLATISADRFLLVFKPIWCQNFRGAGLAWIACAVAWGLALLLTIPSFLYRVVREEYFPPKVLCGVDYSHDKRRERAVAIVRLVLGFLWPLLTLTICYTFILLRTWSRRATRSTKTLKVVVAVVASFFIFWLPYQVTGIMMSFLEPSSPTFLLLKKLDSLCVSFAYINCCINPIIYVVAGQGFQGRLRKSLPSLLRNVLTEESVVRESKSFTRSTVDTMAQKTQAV
T1 sequence (P21730 whole entry): as above

SMILES | IC50 [1] [nM] | IC50 [2] [nM] | IC50 [3] [nM]
Cc1cccc(F)c1C(=O)N1C(c2ccc(NC3CCCC3)cc2)C(C(=O)Nc2cnc3cnn(C)c3c2)C[C@@H]2COC[C@@H]21 (relative stereo) [Compound 189, cis-2-(4-(cyclopentylamino)phenyl)-1-(2-fluoro-6-methylbenzoyl)-N-(1-methyl-1H-pyrazolo[4,3-b]pyridin-6-yl)octahydrofuro[3,4-b]pyridine-3-carboxamide] | 50 to 500 | 50 to 500 | 2000 to 10000
Cc1ccc(NC(=O)C2C[C@@H]3COC[C@@H]3N(C(=O)c3c(C)cccc3F)C2c2ccc(CN3CCOCC3(C)C)cc2)cc1C(F)(F)F (relative stereo) [Compound 141, cis-2-(4-((3,3-dimethylmorpholino)methyl)phenyl)-1-(2-fluoro-6-methylbenzoyl)-N-(4-methyl-3-(trifluoromethyl)phenyl)octahydrofuro[3,4-b]pyridine-3-carboxamide] | 50 to 500 | 500 to 2000 | 2000 to 10000
Cc1ccc(NC(=O)C2C[C@@H]3CCC[C@@H]3N(C(=O)c3c(C)cccc3F)C2c2ccc(NC3CCOCC3)cc2)cc1C(F)(F)F (relative stereo) [Compound 88, cis-1-(2-fluoro-6-methylbenzoyl)-N-(4-methyl-3-(trifluoromethyl)phenyl)-2-(4-((tetrahydro-2H-pyran-4-yl)amino)phenyl)octahydro-1H-cyclopenta[b]pyridine-3-carboxamide] | 50 to 500 | < 50 | < 50
Cc1cccc(F)c1C(=O)N1C(c2ccc(NC3CCCC3)cc2)C(C(=O)Nc2ccc3c(c2)CCN(C)C3)C[C@@H]2CCC[C@@H]21 (relative stereo) [Compound 77, cis-2-(4-(cyclopentylamino)phenyl)-1-(2-fluoro-6-methylbenzoyl)-N-(2-methyl-1,2,3,4-tetrahydroisoquinolin-6-yl)octahydro-1H-cyclopenta[b]pyridine-3-carboxamide] | 2000 to 5000 | > 5000 | 2000 to 10000
Cc1cccc(F)c1C(=O)N1CCC[C@H](c2nc3ccc(C(C)(C)C)cc3[nH]2)[C@@H]1c1ccc(NC2CCCC2)cc1 [Compound 180, ((2R,3S)-3-(6-(tert-butyl)-1H-benzo[d]imidazol-2-yl)-2-(4-(cyclopentylamino)phenyl)piperidin-1-yl)(2-fluoro-6-methylphenyl)methanone] | 2000 to 5000 | < 50 | 2000 to 10000
Cc1cccc(F)c1C(=O)N1[C@@H]2CCC[C@@H]2C[C@H](C(=O)Nc2cccc(S(C)(=O)=O)c2)[C@@H]1c1ccc(NC2CCCC2)cc1 (racemic) [Compound 70, cis-2-(4-(cyclopentylamino)phenyl)-1-(2-fluoro-6-methylbenzoyl)-N-(3-(methylsulfonyl)phenyl)octahydro-1H-cyclopenta[b]pyridine-3-carboxamide] | 500 to 2000 | 500 to 2000 | 2000 to 10000
Cc1ccc(NC(=O)C2C[C@@H]3COC[C@@H]3N(C(=O)c3c(C)cccc3F)C2c2ccc(NC3CCCC3)cc2)cc1C(F)(F)F (relative stereo) [Compound 118, cis-2-(4-(cyclopentylamino)phenyl)-1-(2-fluoro-6-methylbenzoyl)-N-(4-methyl-3-(trifluoromethyl)phenyl)octahydrofuro[3,4-b]pyridine-3-carboxamide] | < 50 | < 50 | 50 to 500
Cc1cccc(F)c1C(=O)N1C2CCC[C@@H]2C[C@H](C(=O)Nc2ccc3cccnc3c2)[C@@H]1c1ccc(NC2CCCC2)cc1 (mixture of isomers) [Compound 73, cis-2-(4-(cyclopentylamino)phenyl)-1-(2-fluoro-6-methylbenzoyl)-N-(quinolin-7-yl)octahydro-1H-cyclopenta[b]pyridine-3-carboxamide] | 50 to 500 | 50 to 500 | 50 to 500

More lines, now with the values ahead:

IC50 [1] [nM] | IC50 [2] [nM] | IC50 [3] [nM] | SMILES
50 to 500 | 500 to 2000 | 2000 to 10000 | Cc1cccc(F)c1C(=O)N1[C@@H]2COC[C@@H]2C[C@H](C(=O)Nc2ccc3[nH]ncc3c2)[C@@H]1c1ccc(NC2CCCC2)cc1 [Compound 138, (2R,3S,4aR,7aS)-2-(4-(cyclopentylamino)phenyl)-1-(2-fluoro-6-methylbenzoyl)-N-(1H-indazol-5-yl)octahydrofuro[3,4-b]pyridine-3-carboxamide]
50 to 500 | < 50 | 500 to 2000 | Cc1ccc(NC(=O)[C@H]2CCC3CCc4ccccc4C(=O)N3[C@H]2c2ccc(NC3CCCC3)cc2)cc1C(F)(F)F (stereo partly drawn) [Compound 44, (3S,4R)-4-(4-(cyclopentylamino)phenyl)-N-(4-methyl-3-(trifluoromethyl)phenyl)-6-oxo-1,2,3,4,6,11,12,12a-octahydrobenzo[e]pyrido[1,2-a]azepine-3-carboxamide]
50 to 500 | 50 to 500 | 50 to 500 | Cc1cccc(F)c1C(=O)N1C2CCC[C@@H]2C[C@H](C(=O)Nc2ccc3cccnc3c2)[C@@H]1c1ccc(NC2CCOCC2)cc1 (relative stereo) [Compound 90, cis-1-(2-fluoro-6-methylbenzoyl)-N-(quinolin-7-yl)-2-(4-((tetrahydro-2H-pyran-4-yl)amino)phenyl)octahydro-1H-cyclopenta[b]pyridine-3-carboxamide]
50 to 500 | 50 to 500 | 2000 to 10000 | Cc1cccc(F)c1C(=O)N1C2CCC[C@@H]2C[C@H](C(=O)Nc2cccnc2)[C@@H]1c1ccc(NC2CCCC2)cc1 (relative stereo) [Compound 57, cis-2-(4-(cyclopentylamino)phenyl)-1-(2-fluoro-6-methylbenzoyl)-N-(pyridin-3-yl)octahydro-1H-cyclopenta[b]pyridine-3-carboxamide]
50 to 500 | 50 to 500 | 50 to 500 | Cc1ccc(NC(=O)[C@H]2C[C@H]3CCC[C@H]3N(C(=O)c3c(C)cccc3F)[C@H]2c2ccc(NC3CCCC3)cc2)cc1C#N (racemic) [Compound 62, cis-N-(3-cyano-4-methylphenyl)-2-(4-(cyclopentylamino)phenyl)-1-(2-fluoro-6-methylbenzoyl)octahydro-1H-cyclopenta[b]pyridine-3-carboxamide]
< 50 | < 50 | 2000 to 10000 | Cc1cccc(F)c1C(=O)N1[C@@H]2COC[C@@H]2C[C@H](C(=O)Nc2ccc3c(cnn3C)c2)[C@@H]1c1ccc(NC2CCCC2)cc1 [Compound 126, (2R,3S,4aR,7aS)-2-(4-(cyclopentylamino)phenyl)-1-(2-fluoro-6-methylbenzoyl)-N-(1-methyl-1H-indazol-5-yl)octahydrofuro[3,4-b]pyridine-3-carboxamide]
50 to 500 | 50 to 500 | > 10000 | Cc1ccc(NC(=O)C2C[C@H]3CCC[C@H]3N(C(=O)c3cncnc3)C2c2ccc(NC3CCCC3)cc2)cc1C(F)(F)F (relative stereo) [Compound 115, cis-2-(4-(cyclopentylamino)phenyl)-N-(4-methyl-3-(trifluoromethyl)phenyl)-1-(pyrimidine-5-carbonyl)octahydro-1H-cyclopenta[b]pyridine-3-carboxamide]
< 50 | 50 to 500 | 2000 to 10000 | Cc1cccc(F)c1C(=O)N1[C@@H]2CCC[C@@H]2C[C@H](C(=O)Nc2ccc3[nH]ncc3c2)[C@@H]1c1ccc(NC2CCOCC2)cc1 [Compound 96, (2R,3S,4aR,7aR)-1-(2-fluoro-6-methylbenzoyl)-N-(1H-indazol-5-yl)-2-(4-((tetrahydro-2H-pyran-4-yl)amino)phenyl)octahydro-1H-cyclopenta[b]pyridine-3-carboxamide]
50 to 500 | 50 to 500 | 2000 to 10000 | Cc1ccc(NC(=O)[C@H]2CCCN(c3ncnc4ccccc34)[C@H]2c2ccc(NC3CCCC3)cc2)cc1C(F)(F)F [Compound 5, (2R,3S)-2-(4-(cyclopentylamino)phenyl)-N-(4-methyl-3-(trifluoromethyl)phenyl)-1-(quinazolin-4-yl)piperidine-3-carboxamide]
< 50 | 50 to 500 | 2000 to 10000 | Cc1cccc(F)c1C(=O)N1[C@@H]2COC[C@@H]2C[C@H](C(=O)Nc2ccc3c(ccn3C)c2)[C@@H]1c1ccc(NC2CCCC2)cc1 [Compound 139, (2R,3S,4aR,7aS)-2-(4-(cyclopentylamino)phenyl)-1-(2-fluoro-6-methylbenzoyl)-N-(1-methyl-1H-indol-5-yl)octahydrofuro[3,4-b]pyridine-3-carboxamide]
< 50 | < 50 | 50 to 500 | Cc1ccc(NC(=O)[C@H]2C[C@H]3COC[C@H]3N(C(=O)c3c(C)cccc3F)[C@H]2c2ccc(NC3CCCC3)cc2)cc1C(F)(F)F [Compound 119, (2R,3S,4aR,7aS)-2-(4-(cyclopentylamino)phenyl)-1-(2-fluoro-6-methylbenzoyl)-N-(4-methyl-3-(trifluoromethyl)phenyl)octahydrofuro[3,4-b]pyridine-3-carboxamide]
